Experimental findings from ChEMBL document CHEMBL6177930, “2-(4-Bromobenzyl) tethered 4-amino aryl/alkyl-5,6,7,8-tetrahydrobenzo[4,5]thieno[2,3-d]pyrimidines: design, synthesis, anticancer assessment via dual topoisomerase-I/II inhibition, and in silico studies” (RSC Med Chem, 2025) are described below.

In data set [1] the test system is FaDu. Kind of data set: Induction of morphological changes in human FaDu cells assessed as appearance of rounded cells at 1 uM incubated for 48 hrs by bright field microscope based analysis. The class given is functional, cell-based.
For data set [2], the system named is FaDu. Nature of the data set: Induction of apoptosis in human FaDu cells assessed as nuclear changes at 1 to 5 uM by DAPI staining based analysis. The class given is functional, cell-based. The note with it: dose 1-5 µM.
The subject of data set [3] is FaDu. Kind of data set: Induction of apoptosis in human FaDu cells assessed as chromatin condensation at 1 to 5 uM by DAPI staining based analysis. The class given is functional, cell-based. The note with it: dose 1-5 µM.
Data set [4] deals with T1, DNA topoisomerase 1 (Homo sapiens) (UniProt P11387).
T1 sequence (whole entry): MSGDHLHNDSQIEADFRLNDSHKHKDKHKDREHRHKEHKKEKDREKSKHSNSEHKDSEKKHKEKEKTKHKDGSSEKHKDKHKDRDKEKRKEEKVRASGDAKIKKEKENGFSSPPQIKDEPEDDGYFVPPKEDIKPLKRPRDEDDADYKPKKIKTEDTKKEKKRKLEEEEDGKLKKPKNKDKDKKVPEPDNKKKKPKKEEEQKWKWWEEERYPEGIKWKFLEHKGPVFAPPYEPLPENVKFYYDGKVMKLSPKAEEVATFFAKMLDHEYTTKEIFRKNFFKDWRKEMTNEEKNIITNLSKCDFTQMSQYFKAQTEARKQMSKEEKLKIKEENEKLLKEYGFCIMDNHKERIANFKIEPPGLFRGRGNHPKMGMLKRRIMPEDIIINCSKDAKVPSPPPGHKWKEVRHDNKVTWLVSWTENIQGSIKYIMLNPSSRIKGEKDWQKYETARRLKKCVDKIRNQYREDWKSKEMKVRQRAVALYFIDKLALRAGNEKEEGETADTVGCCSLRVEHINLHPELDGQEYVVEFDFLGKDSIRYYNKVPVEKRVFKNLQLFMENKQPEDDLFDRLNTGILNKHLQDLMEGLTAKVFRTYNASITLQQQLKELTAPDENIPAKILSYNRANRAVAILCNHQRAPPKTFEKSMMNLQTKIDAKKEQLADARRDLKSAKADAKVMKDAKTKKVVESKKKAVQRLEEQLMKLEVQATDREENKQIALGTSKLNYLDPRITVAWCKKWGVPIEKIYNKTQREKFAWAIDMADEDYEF
Nature of the data set: Inhibition of human topoisomerase-I extracted from baculovirus expression system using SC-DNA as substrate incubated for 30 mins by EtBr staining based agarose gel electrophoresis method.

For data set [5], the system named is FaDu. Nature of the data set: Inhibition of colony formation in human FaDu cells assessed as reduction in colony formation incubated for 48 hrs crystal violet staining based analysis. The note with it: dose 1-5 µM. The class given is functional, cell-based.
Data set [6] addresses DNA topoisomerase 2-alpha (Homo sapiens) (UniProt P11388). Nature of the data set: Inhibition of human topoisomerase-II alpha assessed as reduction in decatenation activity using kinetoplast DNA as substrate incubated for 30 mins by EtBr staining based agarose gel electrophoresis method.
A further data set deals with MDA-MB-231. Kind of data set: Antiproliferative activity against human MDA-MB-231 cells assessed as inhibition of cell growth at 10 uM measured after 48 to 72 hrs by MTT assay relative to control. It is filed as functional. The note with it: time 48-72 hrs. In general terms: Tetrazolium assays rely on reduction of a dye to a coloured formazan, in cell work by metabolically active cells.

Data set [7] concerns FaDu. Nature of the data set: Antiproliferative activity against human FaDu cells assessed as inhibition of cell growth measured after 72 hrs by MTT assay. It is filed as functional, cell-based.
In data set [8] the test system is FaDu. Kind of data set: Induction of apoptosis in human FaDu cells assessed as nuclear fragmentation at 1 to 5 uM by DAPI staining based analysis. It is filed as functional, cell-based. The note with it: dose 1-5 µM.
For a further data set, the system named is HEK293. Kind of data set: Antiproliferative activity against HEK293 cells assessed as inhibition of cell growth at 10 to 25 uM measured after 48 to 72 hrs by MTT assay. The class given is toxicity, cell-based. Particulars: human, hek293, 25 µM; dose lower 10 µM, time lower 48 hrs, dose upper 25 µM, time upper 72 hrs.
In data set [9] the test system is MCF7. Kind of data set: Induction of cell cycle arrest in human MCF7 cells assessed as accumulation of cells at G0/G1 phase measured after 24 hrs by PI staining based flow cytometry analysis (reference value: 45.2%). It is filed as functional. A general note: In flow cytometry, cells or beads pass a laser one at a time.
For another data set, the system named is T47D. Kind of data set: Antiproliferative activity against human T47D cells assessed as inhibition of cell growth at 10 uM measured after 48 to 72 hrs by MTT assay relative to control. It is filed as functional. Particulars: time 48-72 hrs.
Data set [10] relates to FaDu. Kind of data set: Induction of apoptosis in human FaDu cells assessed as appearance of deformed cell membrane at 1 to 5 uM by DAPI staining based analysis. It is filed as functional. The note with it: dose 1-5 µM.
The subject of data set [11] is FaDu. Kind of data set: Antiproliferative activity against human FaDu cells assessed as inhibition of cell growth at 10 uM measured after 48 to 72 hrs by MTT assay relative to control. It is filed as functional. Particulars: time 48-72 hrs.
In a further data set the test system is A549. Nature of the data set: Antiproliferative activity against human A549 cells assessed as inhibition of cell growth at 10 uM measured after 48 to 72 hrs by MTT assay relative to control. The class given is functional. The note with it: time 48-72 hrs.
The test system of data set [12] is FaDu. Nature of the data set: Induction of autophagy in human FaDu cells assessed as reduction in cell density at 1 to 5 uM measured after 48 hrs by acridine orange staining based fluorescence microscopy analysis. It is filed as functional. Particulars: dose 1-5 µM.
Data set [13] deals with FaDu. Nature of the data set: Upregulation of LC3A/B level in human FaDu cells measured after 48 hrs by Western blot analysis. It is filed as functional, cell-based. Particulars: dose 1-5 µM.
In data set [14] the test system is FaDu. Kind of data set: Inhibition of cell migration in human FaDu cells assessed as reduction in wound closure at 1 to 2 uM measured after 48 hrs by bright field microscopic analysis. It is filed as functional, cell-based. Particulars: dose 1-2 µM.
The nature of data set [15]: Antiproliferative activity against human HCC cells assessed as inhibition of cell growth at 10 uM measured after 48 to 72 hrs by MTT assay relative to control. It is filed as functional. Particulars: time 48-72 hrs.
Data set [16] deals with FaDu. Kind of data set: Induction of autophagy in human FaDu cells assessed as increase in acidic vesicular organelles measured after 48 hrs by acridine orange staining based fluorescence microscopy analysis. The class given is functional, cell-based. The note with it: dose 1-5 µM.
Data set [17] concerns MCF7. Kind of data set: Antiproliferative activity against human MCF7 cells assessed as inhibition of cell growth at 10 uM measured after 48 to 72 hrs by MTT assay relative to control. The class given is functional. The note with it: time 48-72 hrs.
The subject of another data set is Mitochondrial membrane. Nature of the data set: Induction of mitochondrial membrane potential loss in human FaDu cells assessed as decrease in green fluorescence incubated for 48 hrs by Rhodamine 123 staining based fluorescence microscopy analysis. It is filed as cell membranes. The note with it: dose 1-5 µM.

The source made the active and inactive calls. No cut-off for these calls is given here.

DNA topoisomerase 2-alpha (Homo sapiens), sequence (P11388 whole entry): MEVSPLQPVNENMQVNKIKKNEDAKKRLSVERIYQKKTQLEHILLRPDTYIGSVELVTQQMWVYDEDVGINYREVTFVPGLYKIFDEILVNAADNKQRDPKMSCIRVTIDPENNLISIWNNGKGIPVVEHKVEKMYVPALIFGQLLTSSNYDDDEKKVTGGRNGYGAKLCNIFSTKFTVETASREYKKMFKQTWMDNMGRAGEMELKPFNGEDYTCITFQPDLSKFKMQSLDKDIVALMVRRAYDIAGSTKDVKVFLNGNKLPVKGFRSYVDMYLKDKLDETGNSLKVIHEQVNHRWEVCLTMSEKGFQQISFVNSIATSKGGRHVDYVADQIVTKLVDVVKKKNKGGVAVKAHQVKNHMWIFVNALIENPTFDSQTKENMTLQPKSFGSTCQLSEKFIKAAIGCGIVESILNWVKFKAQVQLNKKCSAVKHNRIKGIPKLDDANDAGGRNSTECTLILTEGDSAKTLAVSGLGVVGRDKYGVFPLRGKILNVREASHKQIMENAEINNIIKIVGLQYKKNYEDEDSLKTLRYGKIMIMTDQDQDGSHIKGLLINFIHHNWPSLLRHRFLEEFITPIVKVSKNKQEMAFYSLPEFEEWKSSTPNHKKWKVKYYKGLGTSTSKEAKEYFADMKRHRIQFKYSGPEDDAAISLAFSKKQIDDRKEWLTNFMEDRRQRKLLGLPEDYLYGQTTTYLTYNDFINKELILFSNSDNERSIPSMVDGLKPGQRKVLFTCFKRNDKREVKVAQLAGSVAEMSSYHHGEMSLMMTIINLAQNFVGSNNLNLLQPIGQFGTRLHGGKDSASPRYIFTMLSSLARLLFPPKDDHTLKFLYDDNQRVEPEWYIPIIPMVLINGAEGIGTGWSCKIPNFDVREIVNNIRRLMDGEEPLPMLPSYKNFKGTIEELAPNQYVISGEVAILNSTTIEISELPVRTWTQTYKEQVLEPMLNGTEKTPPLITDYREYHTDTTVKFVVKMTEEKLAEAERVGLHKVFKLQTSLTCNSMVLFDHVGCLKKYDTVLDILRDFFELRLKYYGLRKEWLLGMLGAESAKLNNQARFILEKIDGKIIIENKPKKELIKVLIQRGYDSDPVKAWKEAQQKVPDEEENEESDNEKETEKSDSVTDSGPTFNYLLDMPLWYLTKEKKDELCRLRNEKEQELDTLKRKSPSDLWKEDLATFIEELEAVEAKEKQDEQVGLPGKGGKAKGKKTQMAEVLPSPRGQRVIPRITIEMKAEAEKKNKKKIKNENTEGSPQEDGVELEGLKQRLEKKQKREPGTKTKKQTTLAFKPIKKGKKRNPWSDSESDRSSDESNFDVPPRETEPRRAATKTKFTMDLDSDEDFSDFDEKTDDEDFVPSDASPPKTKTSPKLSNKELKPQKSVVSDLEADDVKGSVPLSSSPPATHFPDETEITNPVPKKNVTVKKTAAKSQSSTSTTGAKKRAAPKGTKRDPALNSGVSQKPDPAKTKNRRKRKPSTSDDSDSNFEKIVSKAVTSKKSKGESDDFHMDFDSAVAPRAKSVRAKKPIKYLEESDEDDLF

The term inhibition denotes the share of the control response that was lost under treatment. What is called IC50 is the midpoint of a concentration-inhibition curve. As to `Brc1ccc(Cc2nc(N3CCN(c4ccncc4)CC3)c3c4c(sc3n2)CCCC4)cc1`, the outcome in the data set on FaDu [1], in the data set on FaDu [2], with FaDu [3], with FaDu [8], in the data set with FaDu [10] and in the data set with FaDu [12] was Active. The inhibition result in data set [4] was “Active; Compound Showed Potent Inhibition Activity Than Camptothecin”; in the data set on FaDu [5], “Dose-dependent-effect”; in [6] it was “Active; Compound Showed Higher Inhibition Activity Than Etoposide”. The inhibition at 10 µM in the data set on MDA-MB-231 came out at 6.27%; with T47D, 83.4%; with FaDu [11] it was 83.5%; with A549 it was 39.2%; in data set [15], 2.28%; with MCF7 [17] it was 15.1%. The IC50 in the data set with FaDu [7] is 1730 nM. Moreover, the Activity entry with FaDu [7] (dose 0.5-50 µM) was “Dose-dependent-effect”; in the data set with HEK293, “Non-toxic”; in the data set with MCF7 [9] it was 20.2%; in the data set with FaDu [13], “Dose-dependent-effect”; in the data set with FaDu [16] it was “Dose-dependent-effect”; in the data set with Mitochondrial membrane, “Dose-dependent-effect”. Besides, the inhibition entry with FaDu [14] is “Active”.
